Key:
Test in all cases: relative viability (nuclei count vs DMSO), 5 days (fraction); higher = more cells survive
201T = tested on: 201T
Procedure, shortened: (§1)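 After 5 days of treatment, lung cancer cells in 1536-well plates were fixed and stained in a single step (final 0.05% Triton X-100, 1% formaldehyde, 1 ug/ml Hoechst) and their nuclei counted on 4× images. Treatment had been applied by pin tool the day after seeding as one drug alone or as a fixed anchor-drug dose with five library-drug doses (not always all listed) in √10 steps. Relative viability is the nuclei count of treated wells divided by that of vehicle wells, and values are medians of duplicate plates.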

ABC-1 = tested on: ABC-1
Procedure, shortened: as §1

COR-L 105 = tested on: COR-L 105
Procedure, shortened: as §1

COR-L23 = tested on: COR-L23
Procedure, shortened: as §1

EKVX = tested on: EKVX
Procedure, shortened: as §1

EPLC-272H = tested on: EPLC-272H
Procedure, shortened: as §1

H3255 = tested on: H3255
Procedure, shortened: as §1

HCC-15 = tested on: HCC-15
Procedure, shortened: as §1

HCC-44 = tested on: HCC-44
Procedure, shortened: as §1

HCC-827 = tested on: HCC-827
Procedure, shortened: as §1

NCI-H1437 = tested on: NCI-H1437
Procedure, shortened: as §1

NCI-H1650 = tested on: NCI-H1650
Procedure, shortened: as §1

NCI-H1651 = tested on: NCI-H1651
Procedure, shortened: as §1

NCI-H1792 = tested on: NCI-H1792
Procedure, shortened: as §1

NCI-H1975 = tested on: NCI-H1975
Procedure, shortened: as §1

NCI-H2087 = tested on: NCI-H2087
Procedure, shortened: as §1

NCI-H358 = tested on: NCI-H358
Procedure, shortened: as §1

NCI-H520 = tested on: NCI-H520
Procedure, shortened: as §1

NCI-H647 = tested on: NCI-H647
Procedure, shortened: as §1

NCI-H661 = tested on: NCI-H661
Procedure, shortened: as §1

NCI-H727 = tested on: NCI-H727
Procedure, shortened: as §1

UMC-11 = tested on: UMC-11
Procedure, shortened: as §1

Structure (SMILES): O=c1[nH]c2ccccc2n1C1CCN(CCCC(c2ccc(F)cc2)c2ccc(F)cc2)CC1 [Pimozide] + CS(=O)(=O)CCNCc1ccc(-c2ccc3ncnc(Nc4ccc(OCc5cccc(F)c5)c(Cl)c4)c3c2)o1 [Lapatinib] (partner 2 µM)
- relative viability (201T; first compound 0.08 µM): 1.01
- relative viability (201T; first compound 0.253 µM): 1.05
- relative viability (201T; first compound 0.8 µM): 1.01
- relative viability (201T; first compound 2.53 µM): 0.995
- relative viability (201T; first compound 8 µM): 0.926
- relative viability (ABC-1; first compound 0.08 µM): 1.18
- relative viability (ABC-1; first compound 0.253 µM): 0.951
- relative viability (ABC-1; first compound 0.8 µM): 1.13
- relative viability (ABC-1; first compound 2.53 µM): 1.16
- relative viability (ABC-1; first compound 8 µM): 1.22
- relative viability (COR-L 105; first compound 0.253 µM): 0.395
- relative viability (COR-L 105; first compound 0.8 µM): 0.377
- relative viability (COR-L 105; first compound 2.53 µM): 0.396
- relative viability (COR-L 105; first compound 8 µM): 0.351
- relative viability (COR-L23; first compound 0.08 µM): 0.99
- relative viability (COR-L23; first compound 0.253 µM): 0.856
- relative viability (COR-L23; first compound 0.8 µM): 0.881
- relative viability (COR-L23; first compound 2.53 µM): 0.914
- relative viability (COR-L23; first compound 8 µM): 0.862
- relative viability (EKVX; first compound 0.253 µM): 0.177
- relative viability (EKVX; first compound 0.8 µM): 0.221
- relative viability (EKVX; first compound 2.53 µM): 0.216
- relative viability (EKVX; first compound 8 µM): 0.464
- relative viability (EPLC-272H; first compound 0.08 µM): 0.819
- relative viability (EPLC-272H; first compound 0.253 µM): 0.945
- relative viability (EPLC-272H; first compound 0.8 µM): 0.716
- relative viability (EPLC-272H; first compound 2.53 µM): 0.809
- relative viability (EPLC-272H; first compound 8 µM): 0.689
- relative viability (H3255; first compound 0.253 µM): 0.281
- relative viability (H3255; first compound 0.8 µM): 0.266
- relative viability (H3255; first compound 2.53 µM): 0.229
- relative viability (H3255; first compound 8 µM): 0.254
- relative viability (HCC-15; first compound 0.08 µM): 0.857
- relative viability (HCC-15; first compound 0.253 µM): 0.889
- relative viability (HCC-15; first compound 0.8 µM): 0.701
- relative viability (HCC-15; first compound 2.53 µM): 0.791
- relative viability (HCC-15; first compound 8 µM): 0.777
- relative viability (HCC-44; first compound 0.08 µM): 0.952
- relative viability (HCC-44; first compound 0.253 µM): 1.08
- relative viability (HCC-44; first compound 0.8 µM): 0.975
- relative viability (HCC-44; first compound 2.53 µM): 0.96
- relative viability (HCC-44; first compound 8 µM): 0.888
- relative viability (HCC-827; first compound 0.253 µM): 0.205
- relative viability (HCC-827; first compound 0.8 µM): 0.189
- relative viability (HCC-827; first compound 2.53 µM): 0.179
- relative viability (HCC-827; first compound 8 µM): 0.194
- relative viability (NCI-H1437; first compound 0.08 µM): 0.858
- relative viability (NCI-H1437; first compound 0.253 µM): 0.849
- relative viability (NCI-H1437; first compound 0.8 µM): 0.801
- relative viability (NCI-H1437; first compound 2.53 µM): 0.636
- relative viability (NCI-H1437; first compound 8 µM): 0.539
- relative viability (NCI-H1650; first compound 0.08 µM): 0.711
- relative viability (NCI-H1650; first compound 0.253 µM): 0.809
- relative viability (NCI-H1650; first compound 0.8 µM): 0.451
- relative viability (NCI-H1650; first compound 2.53 µM): 0.733
- relative viability (NCI-H1650; first compound 8 µM): 0.146
- relative viability (NCI-H1651; first compound 0.08 µM): 0.967
- relative viability (NCI-H1651; first compound 0.253 µM): 0.734
- relative viability (NCI-H1651; first compound 0.8 µM): 0.934
- relative viability (NCI-H1651; first compound 2.53 µM): 0.809
- relative viability (NCI-H1651; first compound 8 µM): 0.746
- relative viability (NCI-H1792; first compound 0.08 µM): 0.888
- relative viability (NCI-H1792; first compound 0.253 µM): 0.784
- relative viability (NCI-H1792; first compound 0.8 µM): 0.83
- relative viability (NCI-H1792; first compound 2.53 µM): 0.846
- relative viability (NCI-H1792; first compound 8 µM): 0.869
- relative viability (NCI-H1975; first compound 0.08 µM): 0.928
- relative viability (NCI-H1975; first compound 0.253 µM): 0.848
- relative viability (NCI-H1975; first compound 0.8 µM): 0.945
- relative viability (NCI-H1975; first compound 2.53 µM): 0.897
- relative viability (NCI-H1975; first compound 8 µM): 0.751
- relative viability (NCI-H2087; first compound 0.08 µM): 0.999
- relative viability (NCI-H2087; first compound 0.253 µM): 1.1
- relative viability (NCI-H2087; first compound 0.8 µM): 0.825
- relative viability (NCI-H2087; first compound 2.53 µM): 1.06
- relative viability (NCI-H2087; first compound 8 µM): 0.847
- relative viability (NCI-H358; first compound 0.08 µM): 0.506
- relative viability (NCI-H358; first compound 0.253 µM): 0.488
- relative viability (NCI-H358; first compound 0.8 µM): 0.433
- relative viability (NCI-H358; first compound 2.53 µM): 0.477
- relative viability (NCI-H358; first compound 8 µM): 0.4
- relative viability (NCI-H520; first compound 0.08 µM): 0.863
- relative viability (NCI-H520; first compound 0.253 µM): 0.922
- relative viability (NCI-H520; first compound 0.8 µM): 0.621
- relative viability (NCI-H520; first compound 2.53 µM): 0.821
- relative viability (NCI-H520; first compound 8 µM): 0.776
- relative viability (NCI-H647; first compound 0.08 µM): 1.18
- relative viability (NCI-H647; first compound 0.253 µM): 1.03
- relative viability (NCI-H647; first compound 0.8 µM): 0.973
- relative viability (NCI-H647; first compound 2.53 µM): 0.964
- relative viability (NCI-H647; first compound 8 µM): 0.58
- relative viability (NCI-H661; first compound 0.08 µM): 0.46
- relative viability (NCI-H661; first compound 0.253 µM): 0.464
- relative viability (NCI-H661; first compound 0.8 µM): 0.451
- relative viability (NCI-H661; first compound 2.53 µM): 0.413
- relative viability (NCI-H661; first compound 8 µM): 0.467
- relative viability (NCI-H727; first compound 0.08 µM): 0.8
- relative viability (NCI-H727; first compound 0.253 µM): 0.922
- relative viability (NCI-H727; first compound 0.8 µM): 0.85
- relative viability (NCI-H727; first compound 2.53 µM): 0.754
- relative viability (NCI-H727; first compound 8 µM): 0.769
- relative viability (UMC-11; first compound 0.08 µM): 1.07
- relative viability (UMC-11; first compound 0.253 µM): 0.957
- relative viability (UMC-11; first compound 0.8 µM): 0.821
- relative viability (UMC-11; first compound 2.53 µM): 0.934
- relative viability (UMC-11; first compound 8 µM): 0.56
